Laboratory results from patent publication US9192577B2, “Pharmaceutical compositions comprising a basic drug compound, a surfactant, and a physiologically tolerable water soluble acid” (Janssen Pharmaceutica NV, priority 2002, dated 2015).
Where two headings read alike, the source gives them in different places.

What was measured:
HIV = test: in vitro anti-HIV assay: inhibition of HIV-induced cytopathic effect in MT-4 cells (MTT); assay type: cell-based; conditions: for pSI: pSI = pCC50-pIC50 (selectivity index CC50/IC50); for pIC50 (M): −log IC50
Experimental: (§1) A rapid, sensitive and automated assay procedure was used for the in vitro evaluation of anti-HIV agents. […] Inhibition of the HIV-induced cytopathic effect was used as the end point. The viability of both HIV- and mock-infected cells was assessed spectrophotometrically via the in situ reduction of 3-(4,5-dimethylthiazol-2-yl)-2,5-diphenyltetrazolium bromide (MTT). The 50% cytotoxic concentration (CC50 in M) was defined as the concentration of compound that reduced the absorbance of the mock-infected control sample by 50%. The percent protection achieved by the compound in HIV-infected cells was calculated by the following formula:
(§2) [formula] whereby (ODT)HIV is the optical density measured with a given concentration of the test compound in HIV-infected cells; (ODC)HIV is the optical density measured for the control untreated HIV-infected cells; (ODC)MOCK is the optical density measured for the control untreated mock-infected cells; all optical density values were determined at 540 nm. The dose achieving 50% protection according to the above formula was defined as the 50% inhibitory concentration (IC50 in M). The ratio of CC50 to IC50 was defined as the selectivity index (SI).

mock-infected MT-4 cells = test: cytotoxicity (CC50) in mock-infected MT-4 cells (MTT); assay type: cell-based
Experimental: as §1, §2

[1] = 50% protection against HIV-induced cytopathic effect in MT-4 cells, MTT

Compound	pSI (HIV)	pIC50 (M) (HIV; [1])	pCC50 (M) (mock-infected MT-4 cells)	IC50 (HIV; Human immunodeficiency virus 1, MT4, −log IC50, 50% protection against HIV-induced cytopathic effect in MT-4 cells, MTT)	pCC50 (M) (mock-infected MT-4 cells; −log CC50, mock-infected MT-4 cells, MTT)
Cc1cc(C=C(C#N)CC#N)cc(C)c1Nc1ccnc(Nc2ccc(C#N)cc2)n1 (mixture of isomers) [Compound 147]	−3.7	9.4 M	5.7 M	–	–
Cc1cc(/C=C/C#N)cc(C)c1Nc1ccnc(Nc2ccc(C#N)cc2)n1 [Compound 1, 4-[[4-[[4-(2-cyanoethenyl)-2,6-dimethylphenyl]amino]-2-pyrimidinyl]amino]benzonitrile]	−4.4	–	–	–	–
Cc1cc(/C=C/C#N)cc(C)c1Nc1ccnc(Nc2ccc(C#N)cc2)n1 [Compound 10]	−2.9	–	–	0.631 nM	6.3 M
Cc1cc(C=CC#N)cc(C)c1Oc1ccnc(Nc2ccc(C#N)cc2)n1 [Compound 25]	−5	9 M	–	–	–
CC(=NO)c1cc(C)c(Nc2ccnc(Nc3ccc(C#N)cc3)n2)c(C)c1 [Compound 45]	−3.8	8.7 M	5.0 M	–	–
Cc1cc(CN(C)CCC#N)cc(C)c1Nc1ccnc(Nc2ccc(C#N)cc2)n1 [Compound 75]	−4.0	9.0 M	5.0 M	–	–
C/C(=C\C#N)c1cc(C)c(Nc2ccnc(Nc3ccc(C#N)cc3)n2)c(C)c1 [Compound 84]	−4.5	9.0 M	4.5 M	–	–
Cc1cc(/C=C/C#N)cc(Cl)c1Nc1ccnc(Nc2ccc(C#N)cc2)n1 [Compound 133]	−5.2	9.2 M	4 M	–	–
Cc1cc(CC(C#N)C#N)cc(C)c1Nc1ccnc(Nc2ccc(C#N)cc2)n1 [Compound 144]	−2.2	8.6 M	6.4 M	–	–
Cc1cc(/C=C/c2cccnc2)cc(C)c1Nc1ccnc(Nc2ccc(C#N)cc2)n1 [Compound 146]	−3	–	–	–	–
CC/C(=C\C#N)c1cc(C)c(Nc2ccnc(Nc3ccc(C#N)cc3)n2)c(C)c1 [Compound 148]	−3.9	8.8 M	4.9 M	–	–
Cc1cc(/C(=C/C#N)C(C)C)cc(C)c1Nc1ccnc(Nc2ccc(C#N)cc2)n1 [Compound 149]	−3.8	9.1 M	5.3 M	–	–
Cc1cc(/C(=C\C#N)C(C)C)cc(C)c1Nc1ccnc(Nc2ccc(C#N)cc2)n1 [Compound 150]	−4.0	8.8 M	4.8 M	–	–
CC(C#N)=Cc1cc(C)c(Nc2ccnc(Nc3ccc(C#N)cc3)n2)c(C)c1 [Compound 151]	−3.6	9.1 M	5.5 M	–	–
CC(C#N)=Cc1cc(C)c(Nc2ccnc(Nc3ccc(C#N)cc3)n2)c(C)c1 [Compound 152]	−4.3	9.1 M	4.8 M	–	–
Cc1cc(CC(C)C#N)cc(C)c1Nc1ccnc(Nc2ccc(C#N)cc2)n1 (stereo not shown) [Compound 153]	−2.9	9.2 M	6.3 M	–	–
CCN(C)C(=O)/C=C/c1cc(C)c(Nc2ccnc(Nc3ccc(C#N)cc3)n2)c(C)c1 [Compound 158]	−2.5	8 M	5.5 M	–	–
Cc1cc(CN(C)C=NC#N)cc(C)c1Oc1ccnc(Nc2ccc(C#N)cc2)n1 [Compound 174]	−3.5	8.8 M	5.3 M	–	–
Cc1cc(/C=C\Br)cc(C)c1Oc1ccnc(Nc2ccc(C#N)cc2)n1 [Compound 177]	<−4.3	8.3 M	<4.0 M	–	–
CC(C#N)=Cc1cc(C)c(Oc2ccnc(Nc3ccc(C#N)cc3)n2)c(C)c1 [Compound 178]	−3.1	8.8 M	5.7 M	–	–
CC(C#N)=Cc1cc(C)c(Oc2ccnc(Nc3ccc(C#N)cc3)n2)c(C)c1 [Compound 179]	<−4.9	8.9 M	<4.0 M	–	–
Cc1cc(/C=C/C(=O)N(C)CC#N)cc(C)c1Oc1ccnc(Nc2ccc(C#N)cc2)n1 [Compound 212]	−4.1	9.1 M	5 M	–	–

Compound	pSI (HIV)	pIC50 (M) (HIV; [1])	pCC50 (M) (mock-infected MT-4 cells)	IC50 (HIV; Human immunodeficiency virus 1, MT4, −log IC50, 50% protection against HIV-induced cytopathic effect in MT-4 cells, MTT)	pCC50 (M) (mock-infected MT-4 cells; −log CC50, mock-infected MT-4 cells, MTT)
C/C(=C\C#N)c1cc(C)c(Oc2ccnc(Nc3ccc(C#N)cc3)n2)c(C)c1 [Compound 213]	−4.2	9 M	4.8 M	–	–
Cc1cc(/C=C/C(=O)N(C)CCC#N)cc(C)c1Oc1ccnc(Nc2ccc(C#N)cc2)n1 [Compound 214]	−3.5	8.6 M	5.1 M	–	–
CCN(C)C(=O)/C=C/c1cc(C)c(Oc2ccnc(Nc3ccc(C#N)cc3)n2)c(C)c1 [Compound 215]	−3.6	9.1 M	5.5 M	–	–
Cc1cc(/C=C/C(=O)N(C)C)cc(C)c1Oc1ccnc(Nc2ccc(C#N)cc2)n1 [Compound 219]	−4.1	9.1 M	5 M	–	–
Cc1cc(CCC#N)ccc1Nc1ccnc(Nc2ccc(C#N)cc2)n1 [Compound 227]	<−5.5	9.5 M	<4.0 M	–	–
CC(C#N)=Cc1ccc(Nc2ccnc(Nc3ccc(C#N)cc3)n2)c(C)c1 [Compound 229]	<−4.8	8.8 M	<4.0 M	–	–
Cc1cc(/C=C/C#N)ccc1Oc1ccnc(Nc2ccc(C#N)cc2)n1 [Compound 230]	<−5.2	9.2 M	<4.0 M	–	–
CC(C#N)=Cc1ccc(Oc2ccnc(Nc3ccc(C#N)cc3)n2)c(C)c1 [Compound 231]	<−5.2	9.2 M	<4.0 M	–	–
C/C(=C\C#N)c1ccc(Oc2ccnc(Nc3ccc(C#N)cc3)n2)c(C)c1 [Compound 232]	<−4.4	8.4 M	<4.0 M	–	–
CC(C#N)=Cc1cc(C)c(Nc2ccnc(Nc3ccc(C#N)cc3)n2)c(Cl)c1 [Compound 233]	−3.6	9.3 M	5.7 M	–	–
Cc1cc(CCC#N)ccc1Oc1ccnc(Nc2ccc(C#N)cc2)n1 [Compound 234]	<−4.7	8.7 M	<4.0 M	–	–
Cc1cc(C(C)CC#N)ccc1Oc1ccnc(Nc2ccc(C#N)cc2)n1 (stereo not shown) [Compound 235]	<−5.3	9.3 M	<4.0 M	–	–
Cc1cc(CC(C)C#N)ccc1Oc1ccnc(Nc2ccc(C#N)cc2)n1 (stereo not shown) [Compound 236]	<−4.8	8.8 M	<4.0 M	–	–
Cc1cc(/C=C/C#N)ccc1Nc1ccnc(Nc2ccc(C#N)cc2)n1 [Compound 237]	<−4.9	8.9 M	<4.0 M	–	–
Cc1cc(CC#N)cc(Cl)c1Nc1ccnc(Nc2ccc(C#N)cc2)n1 [Compound 238]	−3.9	9.5 M	5.6 M	–	–
Cc1cc(/C=C/C#N)cc(-c2ccco2)c1Nc1ccnc(Nc2ccc(C#N)cc2)n1 [Compound 239]	−3.9	8.9 M	5 M	–	–
Cc1cc(CN(C)CCC#N)cc(Br)c1Nc1ccnc(Nc2ccc(C#N)cc2)n1 [Compound 241]	−4.1	9.4 M	5.3 M	–	–
N#C/C=C/c1ccc(Nc2ccnc(Nc3ccc(C#N)cc3)n2)c(Br)c1 [Compound 244]	−5.2	9.2 M	4 M	–	–
COc1cc(/C=C/C#N)ccc1Nc1ccnc(Nc2ccc(C#N)cc2)n1 [Compound 245]	−4.8	8.8 M	4 M	–	–
CC(C#N)=Cc1cc(C)c(Nc2ccnc(Nc3ccc(C#N)cc3)n2)c(Br)c1 [Compound 247]	−3	9.2 M	6.2 M	–	–
Cc1cc(/C=C/C#N)cc(Br)c1Nc1ccnc(Nc2ccc(C#N)cc2)n1 [Compound 248]	−3.5	9.3 M	5.7 M	–	–
COc1cc(C=C(C)C#N)ccc1Nc1ccnc(Nc2ccc(C#N)cc2)n1 [Compound 249]	−4.5	8.5 M	4 M	–	–
